Results reported in PubChem BioAssay AID1919002 (Molecular Pharmacology Branch, DTP, NCI, 2023).
Values joined by “and” are separate entries in the source; they are usually repeats but may differ in a detail not shown here. Equal values may be shown once.

Test system: 743489-274-T-PDC complex spheroid growth
Experiment: Anticancer human tumor 743489-274-T-PDC patient-derived renal cell carcinoma cell line growth inhibition [AhR]
Settings: for viability, T/C: stronger effect = lower value; active means viability on the fitted dose curve at most 10% of control; inactive means the rest
Outline: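 Agents were dosed in half-log steps down from roughly clinical Cmax, or from 10 microM where Cmax was unknown, alone and with AhR antagonists. Read-out: percent test/control growth of tumor spheroids containing HUVEC and MSC stromal cells.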

[1] = curve of first compound, second compound 0.1 µM
[2] = curve of first compound, second compound 0.316 µM
[3] = curve of first compound, second compound 1 µM
[4] = curve of first compound, second compound 3.16 µM
[5] = curve of first compound, second compound 10 µM
[6] = second compound 0.1 µM, first compound 0.0316 µM
[7] = second compound 0.1 µM, first compound 0.1 µM
[8] = second compound 0.1 µM, first compound 0.316 µM
[9] = second compound 0.1 µM, first compound 1 µM
[10] = second compound 0.1 µM, first compound 3.16 µM
[11] = second compound 0.1 µM, first compound 10 µM
[12] = second compound 0.316 µM, first compound 0.0316 µM
[13] = second compound 0.316 µM, first compound 0.1 µM
[14] = second compound 0.316 µM, first compound 0.316 µM
[15] = second compound 0.316 µM, first compound 1 µM
[16] = second compound 0.316 µM, first compound 3.16 µM
[17] = second compound 0.316 µM, first compound 10 µM
[18] = second compound 1 µM, first compound 0.0316 µM
[19] = second compound 1 µM, first compound 0.1 µM
[20] = second compound 1 µM, first compound 0.316 µM
[21] = second compound 1 µM, first compound 1 µM
[22] = second compound 1 µM, first compound 3.16 µM
[23] = second compound 1 µM, first compound 10 µM
[24] = second compound 3.16 µM, first compound 0.0316 µM
[25] = second compound 3.16 µM, first compound 0.1 µM
[26] = second compound 3.16 µM, first compound 0.316 µM
[27] = second compound 3.16 µM, first compound 1 µM
[28] = second compound 3.16 µM, first compound 3.16 µM
[29] = second compound 3.16 µM, first compound 10 µM
[30] = second compound 10 µM, first compound 0.0316 µM
[31] = second compound 10 µM, first compound 0.1 µM
[32] = second compound 10 µM, first compound 0.316 µM
[33] = second compound 10 µM, first compound 1 µM
[34] = second compound 10 µM, first compound 3.16 µM
[35] = second compound 10 µM, first compound 10 µM
[36] = second compound 0.1 µM, first compound 0.00316 µM
[37] = second compound 0.1 µM, first compound 0.01 µM
[38] = second compound 0.316 µM, first compound 0.00316 µM
[39] = second compound 0.316 µM, first compound 0.01 µM
[40] = second compound 1 µM, first compound 0.00316 µM
[41] = second compound 1 µM, first compound 0.01 µM
[42] = second compound 3.16 µM, first compound 0.00316 µM
[43] = second compound 3.16 µM, first compound 0.01 µM
[44] = second compound 10 µM, first compound 0.00316 µM
[45] = second compound 10 µM, first compound 0.01 µM
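Further: spheroids exposed to agents for 7 days before readout.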
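Wherever viability, T/C is given: 100% = DMSO vehicle control wells.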

Nc1ccccc1NC(=O)c1ccc(CNC(=O)OCc2cccnc2)cc1 + CC(CO)NC(=O)c1cc(-c2ccc(Cl)cc2)nn(-c2cnn(C)c2)c1=O
1.74 µM: IC50 [4]
4.81 µM: IC50 [1]
1.08 µM: IC50 [5]
inactive: viability, T/C [6] 92.7% | viability, T/C [7] 92.3% | viability, T/C [8] 92.9% | viability, T/C [9] 72.5% | viability, T/C [10] 61.8% | viability, T/C [11] 32.9% | viability, T/C [12] 89.1% | viability, T/C [13] 80.9% | viability, T/C [14] 87.9% | viability, T/C [15] 62.6% | viability, T/C [16] 55.4% | viability, T/C [17] 34.6% | viability, T/C [18] 92.5% | viability, T/C [19] 91% | viability, T/C [20] 80.5% | viability, T/C [21] 78.4% | viability, T/C [22] 56.4% | viability, T/C [23] 29.7% | viability, T/C [24] 88.4% | viability, T/C [25] 88.5% | viability, T/C [26] 78% | viability, T/C [27] 59.7% | viability, T/C [28] 39.7% | viability, T/C [29] 27.7% | viability, T/C [30] 79.1% | viability, T/C [31] 87.3% | viability, T/C [32] 69.2% | viability, T/C [33] 52.4% | viability, T/C [34] 31.3% | viability, T/C [35] 23.4%
4.31 µM: IC50 [3]
3.74 µM: IC50 [2]

CC1COCCN1c1cc(C2(S(C)(=N)=O)CC2)nc(-c2ccnc3[nH]ccc23)n1 (stereo not drawn)
> 10 µM: IC50 (curve of compound)
inactive: viability, T/C (compound 0.0316 µM) 101% (2×) and 98.1% | viability, T/C (compound 0.1 µM) 109% and 103% and 97.3% | viability, T/C (compound 0.316 µM) 101% and 110% and 96.7% | viability, T/C (compound 1 µM) 94.8% and 103% and 108% | viability, T/C (compound 3.16 µM) 98.2% and 102% and 104% | viability, T/C (compound 10 µM) 99.1% and 92% and 114%

NS(=O)(=O)OCC1CC(n2ccc3c(NC4CCc5ccccc54)ncnc32)CC1O (stereo not drawn) + Cc1ccccc1N=Nc1ccc(NC(=O)c2ccnn2C)c(C)c1
> 10 µM: IC50 [1] | IC50 [2] | IC50 [3] | IC50 [4] | IC50 [5]
inactive: viability, T/C [6] 103% | viability, T/C [7] 110% | viability, T/C [8] 116% | viability, T/C [9] 146% | viability, T/C [10] 162% | viability, T/C [11] 140% | viability, T/C [12] 109% | viability, T/C [13] 95.8% | viability, T/C [14] 112% | viability, T/C [15] 144% | viability, T/C [16] 137% | viability, T/C [17] 155% | viability, T/C [18] 98.1% | viability, T/C [19] 104% | viability, T/C [20] 102% | viability, T/C [21] 144% | viability, T/C [22] 146% | viability, T/C [23] 141% | viability, T/C [24] 105% | viability, T/C [25] 90.8% | viability, T/C [26] 112% | viability, T/C [27] 128% | viability, T/C [28] 152% | viability, T/C [29] 140% | viability, T/C [30] 96.7% | viability, T/C [31] 103% | viability, T/C [32] 116% | viability, T/C [33] 130% | viability, T/C [34] 121% | viability, T/C [35] 115%

Nc1ncn(C2CC(O)C(CO)O2)c(=O)n1 (stereo not drawn) + Cc1cncc(-c2nc(NCCc3c[nH]c4ccccc34)c3ncn(C(C)C)c3n2)c1
inactive: viability, T/C [36] 105% | viability, T/C [37] 98.7% | viability, T/C [6] 104% | viability, T/C [7] 95.1% | viability, T/C [8] 92% | viability, T/C [9] 96% | viability, T/C [38] 99.4% | viability, T/C [39] 99.8% | viability, T/C [12] 93.5% | viability, T/C [13] 96.3% | viability, T/C [14] 94.8% | viability, T/C [15] 94.4% | viability, T/C [40] 109% | viability, T/C [41] 107% | viability, T/C [18] 98.5% | viability, T/C [19] 93% | viability, T/C [20] 106% | viability, T/C [21] 93.7% | viability, T/C [42] 104% | viability, T/C [43] 108% | viability, T/C [24] 104% | viability, T/C [25] 100% | viability, T/C [26] 103% | viability, T/C [27] 98.4% | viability, T/C [44] 113% | viability, T/C [45] 114% | viability, T/C [30] 131% | viability, T/C [31] 109% | viability, T/C [32] 107% | viability, T/C [33] 120%
> 1 µM: IC50 [1] | IC50 [2] | IC50 [3] | IC50 [4] | IC50 [5]

Cn1ncnc1C1c2n[nH]c(=O)c3cc(F)cc(c23)NC1c1ccc(F)cc1 (stereo not drawn) + CC(CO)NC(=O)c1cc(-c2ccc(Cl)cc2)nn(-c2cnn(C)c2)c1=O
> 0.1 µM: IC50 [1] | IC50 [2] | IC50 [3] | IC50 [4] | IC50 [5]
inactive: viability, T/C (second compound 0.1 µM, first compound 0.000316 µM) 90.7% | viability, T/C (second compound 0.1 µM, first compound 0.001 µM) 98% | viability, T/C [36] 106% | viability, T/C [37] 95% | viability, T/C [6] 89.6% | viability, T/C [7] 86.8% | viability, T/C (second compound 0.316 µM, first compound 0.000316 µM) 85.5% | viability, T/C (second compound 0.316 µM, first compound 0.001 µM) 95.8% | viability, T/C [38] 115% | viability, T/C [39] 88% | viability, T/C [12] 80.6% | viability, T/C [13] 84.8% | viability, T/C (second compound 1 µM, first compound 0.000316 µM) 94.1% | viability, T/C (second compound 1 µM, first compound 0.001 µM) 97.6% | viability, T/C [40] 102% | viability, T/C [41] 87% | viability, T/C [18] 82.7% | viability, T/C [19] 91.8% | viability, T/C (second compound 3.16 µM, first compound 0.000316 µM) 93.9% | viability, T/C (second compound 3.16 µM, first compound 0.001 µM) 92.2% | viability, T/C [42] 91.4% | viability, T/C [43] 92.1% | viability, T/C [24] 89.4% | viability, T/C [25] 93.4% | viability, T/C (second compound 10 µM, first compound 0.000316 µM) 83.7% | viability, T/C (second compound 10 µM, first compound 0.001 µM) 86.3% | viability, T/C [44] 85% | viability, T/C [45] 99% | viability, T/C [30] 90.9% | viability, T/C [31] 83.1%

Cc1ccccc1N=Nc1ccc(NC(=O)c2ccnn2C)c(C)c1
inactive: viability, T/C (compound 0.1 µM) 90.5% [middle of 20 runs] | viability, T/C (compound 0.316 µM) 90.9% [middle of 20 runs] | viability, T/C (compound 1 µM) 86.1% [middle of 20 runs]
> 10 µM: IC50 (compound alone, run of 08/22/2022)

COc1ccc([C@@H](O)c2cc(-c3ncnc4cc(N5CCOCC5)ccc34)c(F)cc2Cl)nn1 + CC(CO)NC(=O)c1cc(-c2ccc(Cl)cc2)nn(-c2cnn(C)c2)c1=O
inactive: viability, T/C [6] 103% | viability, T/C [7] 96.8% | viability, T/C [8] 92.4% | viability, T/C [9] 86% | viability, T/C [10] 48.8% | viability, T/C [11] 28.8% | viability, T/C [12] 86% | viability, T/C [13] 87.8% | viability, T/C [14] 89.4% | viability, T/C [15] 78.2% | viability, T/C [16] 54% | viability, T/C [17] 25.2% | viability, T/C [18] 87.9% | viability, T/C [19] 89.4% | viability, T/C [20] 88.2% | viability, T/C [21] 77.9% | viability, T/C [22] 50.7% | viability, T/C [23] 25.5% | viability, T/C [24] 92.3% | viability, T/C [25] 81.7% | viability, T/C [26] 87.3% | viability, T/C [27] 73.9% | viability, T/C [28] 45% | viability, T/C [29] 25.7% | viability, T/C [30] 101% | viability, T/C [31] 92% | viability, T/C [32] 93.8% | viability, T/C [33] 79.3% | viability, T/C [34] 45.5% | viability, T/C [35] 20.9%
2.6 µM: IC50 [4]
3.25 µM: IC50 [3]
3.68 µM: IC50 [2]
3.1 µM: IC50 [1]
2.73 µM: IC50 [5]

CC(C)c1c(-c2ccccc2)nc2c(C#N)c[nH]n2c1=O
inactive: viability, T/C (compound 0.0316 µM) 110% and 112% and 107% | viability, T/C (compound 0.1 µM) 110% and 105% and 109% | viability, T/C (compound 0.316 µM) 101% (2×) and 103% | viability, T/C (compound 1 µM) 109% and 104% and 112% | viability, T/C (compound 3.16 µM) 107% and 106% and 111% | viability, T/C (compound 10 µM) 101% and 107% and 102%
> 10 µM: IC50 (curve of compound)
